From patent US8524755B2 (priority 2009, dated 2013) come the findings set out here.

In test [1] the target is T1, Cholecystokinin CCK1 (CCKA) (h) (Homo sapiens, UniProt P32238).
T1 construct: expressed in transfected cells; host or cells: CHO cells
T1 sequence (P32238 1-428): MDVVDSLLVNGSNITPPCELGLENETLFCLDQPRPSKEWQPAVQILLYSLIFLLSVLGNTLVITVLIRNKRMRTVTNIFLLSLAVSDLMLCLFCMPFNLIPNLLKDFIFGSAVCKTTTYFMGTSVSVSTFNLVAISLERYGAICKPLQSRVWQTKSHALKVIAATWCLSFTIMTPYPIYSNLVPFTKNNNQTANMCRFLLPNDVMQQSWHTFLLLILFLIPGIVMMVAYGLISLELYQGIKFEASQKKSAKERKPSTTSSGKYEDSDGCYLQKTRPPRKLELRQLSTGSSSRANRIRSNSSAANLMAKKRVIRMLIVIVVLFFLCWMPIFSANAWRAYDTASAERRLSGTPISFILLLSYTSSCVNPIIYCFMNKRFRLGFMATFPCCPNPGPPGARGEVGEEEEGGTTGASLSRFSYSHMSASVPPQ
Briefly: Binding CCK1 (CCKA) (h) (ag). The settings on record: read-out: % Inhibition of Control Specific Binding @ 10 μM. The protocol:
(§1) Radioligand binding assay methods utilized to measure the activity of compounds of the invention will be familiar to those skilled in the art. In each assay case, the assay components such as, for example, the cell-type, ligand, reference compound and the like, will be familiar to practitioners of such an assay.
(§2) Analysis and Expression of Results: Compounds of the invention were tested in the biochemical assays and percent inhibition of specific binding was determined. The specific ligand binding to the receptors is defined as the difference between the total binding and the nonspecific binding determined in the presence of an excess of unlabelled ligand. The results are expressed as a percent inhibition of control specific binding (100−((measured specific binding/control specific binding)×100)) obtained in the presence of test compounds.

The target in test [2] is T2, Adenosine A2A (h) (Homo sapiens, UniProt P29274).
T2 construct: expressed in transfected cells; host or cells: HEK-293 cells
T2 sequence (P29274 whole entry): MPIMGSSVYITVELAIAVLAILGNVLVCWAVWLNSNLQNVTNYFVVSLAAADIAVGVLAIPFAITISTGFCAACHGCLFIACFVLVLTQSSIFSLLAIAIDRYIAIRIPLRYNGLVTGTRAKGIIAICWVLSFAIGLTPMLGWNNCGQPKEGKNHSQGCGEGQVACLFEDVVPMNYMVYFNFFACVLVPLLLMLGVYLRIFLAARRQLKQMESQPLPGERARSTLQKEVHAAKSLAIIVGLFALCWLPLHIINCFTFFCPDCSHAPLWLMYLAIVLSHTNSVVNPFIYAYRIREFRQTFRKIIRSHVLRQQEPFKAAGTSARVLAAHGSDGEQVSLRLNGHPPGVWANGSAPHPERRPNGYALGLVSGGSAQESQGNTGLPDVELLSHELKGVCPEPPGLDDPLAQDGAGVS
Put plainly: Binding A2A (h) (ag). The settings on record: read-out: % Inhibition of Control Specific Binding @ 10 μM. As for the experimental part: as §1, §2

In test [3] the target is T3, Angiotensin AT2 (h) (Homo sapiens, UniProt P50052).
T3 construct: expressed in transfected cells; host or cells: CHO cells
T3 sequence (P50052 1-363): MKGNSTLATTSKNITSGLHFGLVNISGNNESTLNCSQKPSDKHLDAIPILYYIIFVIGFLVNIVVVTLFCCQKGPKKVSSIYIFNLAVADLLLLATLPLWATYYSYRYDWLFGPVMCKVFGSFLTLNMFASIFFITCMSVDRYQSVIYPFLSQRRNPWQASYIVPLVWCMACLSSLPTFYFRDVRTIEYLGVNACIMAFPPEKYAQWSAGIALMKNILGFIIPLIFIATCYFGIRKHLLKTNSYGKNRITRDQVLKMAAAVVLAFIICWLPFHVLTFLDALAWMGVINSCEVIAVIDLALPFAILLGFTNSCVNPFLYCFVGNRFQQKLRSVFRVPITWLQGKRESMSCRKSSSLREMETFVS
Put plainly: Binding AT2 (h). The settings on record: AT2 (h) (aa), read-out: % Inhibition of Control Specific Binding @ 10 μM. As for the experimental part: as §1, §2

Test [4] concerns the target T4, β2 (h) (Homo sapiens, UniProt P07550).
T4 construct: expressed in transfected cells; host or cells: CHO cells
Put plainly: Binding β2 (h) (ag). The settings on record: read-out: % Inhibition of Control Specific Binding @ 10 μM. As for the experimental part: as §1, §2

Test [5] concerns the target T5, N neuronal α-BGTX-insensitive (α4β2) (Rattus norvegicus, UniProt P09483+P12390).
T5 construct: rat cerebral cortex; from tissue; host or cells: rat cerebral cortex
Put plainly: Binding N neuronal α-BGTX-insensitive (α4β2) (ag). As to conditions: read-out: % Inhibition of Control Specific Binding @ 10 μM. The protocol: as §1, §2

Test [6] deals with T6, PDE3A (h) (Homo sapiens, UniProt Q14432).
T6 construct: host or cells: Sf9 cells
T6 sequence (Q14432 whole entry): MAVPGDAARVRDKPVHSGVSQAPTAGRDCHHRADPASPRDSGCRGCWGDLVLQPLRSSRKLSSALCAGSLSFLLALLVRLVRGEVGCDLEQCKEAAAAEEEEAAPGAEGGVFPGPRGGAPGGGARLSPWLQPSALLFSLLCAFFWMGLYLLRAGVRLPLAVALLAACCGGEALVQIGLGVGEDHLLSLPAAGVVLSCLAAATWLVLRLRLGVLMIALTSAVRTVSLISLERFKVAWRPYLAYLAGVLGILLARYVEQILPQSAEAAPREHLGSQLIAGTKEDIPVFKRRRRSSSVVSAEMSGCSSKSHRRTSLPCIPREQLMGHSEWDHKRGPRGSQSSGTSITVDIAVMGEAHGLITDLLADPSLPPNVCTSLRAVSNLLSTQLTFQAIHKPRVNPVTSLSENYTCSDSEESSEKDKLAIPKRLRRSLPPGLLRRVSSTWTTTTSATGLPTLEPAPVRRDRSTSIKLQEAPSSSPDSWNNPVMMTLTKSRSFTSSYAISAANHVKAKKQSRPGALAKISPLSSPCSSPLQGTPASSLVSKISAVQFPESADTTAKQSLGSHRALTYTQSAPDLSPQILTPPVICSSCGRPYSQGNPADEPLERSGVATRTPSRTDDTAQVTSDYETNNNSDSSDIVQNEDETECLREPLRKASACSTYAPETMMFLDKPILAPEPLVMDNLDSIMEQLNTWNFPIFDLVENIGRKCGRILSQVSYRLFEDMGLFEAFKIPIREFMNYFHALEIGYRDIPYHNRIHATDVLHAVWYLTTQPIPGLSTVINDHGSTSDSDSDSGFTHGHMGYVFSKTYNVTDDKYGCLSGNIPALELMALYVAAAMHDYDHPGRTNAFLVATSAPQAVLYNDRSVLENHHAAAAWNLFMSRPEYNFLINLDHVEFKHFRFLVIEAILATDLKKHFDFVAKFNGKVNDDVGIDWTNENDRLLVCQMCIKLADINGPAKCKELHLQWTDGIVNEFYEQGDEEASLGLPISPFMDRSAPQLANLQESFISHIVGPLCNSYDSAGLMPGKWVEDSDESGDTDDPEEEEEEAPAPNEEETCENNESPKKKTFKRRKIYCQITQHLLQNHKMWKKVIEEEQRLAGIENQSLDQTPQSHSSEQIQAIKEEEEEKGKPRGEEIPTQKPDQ
Put plainly: Enzyme assay PDE3A (h). The format is biochemical. The settings on record: read-out: % Inhibition of Control Values @ 10 μM. An excerpt:
The enzyme assays provided below will be familiar to those skilled in the art.
Analysis and Expression of Results: The results are expressed as a percent of control specific activity ((measured specific activity/control specific activity)×100) obtained in the presence of the test compounds.

The target in test [7] is T7, Adenosine A3 (h) (Homo sapiens, UniProt P0DMS8).
T7 construct: expressed in transfected cells; host or cells: HEK-293 cells
T7 sequence (P0DMS8 1-318): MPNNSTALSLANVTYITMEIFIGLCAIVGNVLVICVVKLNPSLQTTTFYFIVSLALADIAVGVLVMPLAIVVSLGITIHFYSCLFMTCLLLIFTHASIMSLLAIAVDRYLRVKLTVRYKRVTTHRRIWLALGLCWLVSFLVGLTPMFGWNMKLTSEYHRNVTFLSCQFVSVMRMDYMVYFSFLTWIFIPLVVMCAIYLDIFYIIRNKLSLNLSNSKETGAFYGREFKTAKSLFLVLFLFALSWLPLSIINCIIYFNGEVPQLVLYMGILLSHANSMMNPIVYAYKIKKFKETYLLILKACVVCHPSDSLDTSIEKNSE
Put plainly: Binding A3 (h) (ag). The settings on record: read-out: % Inhibition of Control Specific Binding @ 10 μM. The protocol:
as §1, §2

Test [8] has as its target T8, Dopamine D4.4 (h) (Homo sapiens, UniProt P21917).
T8 construct: expressed in transfected cells; host or cells: CHO cells
T8 sequence (P21917 1-419): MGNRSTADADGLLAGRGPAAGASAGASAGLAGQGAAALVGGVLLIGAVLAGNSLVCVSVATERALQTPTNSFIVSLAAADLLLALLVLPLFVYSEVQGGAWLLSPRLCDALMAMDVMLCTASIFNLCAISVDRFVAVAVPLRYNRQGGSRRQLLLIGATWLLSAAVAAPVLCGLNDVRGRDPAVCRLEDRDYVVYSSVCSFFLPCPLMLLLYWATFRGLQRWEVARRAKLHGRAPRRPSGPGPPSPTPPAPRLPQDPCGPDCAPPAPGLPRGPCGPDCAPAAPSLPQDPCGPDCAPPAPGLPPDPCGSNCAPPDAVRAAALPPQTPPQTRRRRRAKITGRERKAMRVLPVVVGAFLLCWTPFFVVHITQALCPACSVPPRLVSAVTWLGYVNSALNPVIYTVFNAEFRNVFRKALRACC
Briefly: Binding D4.4 (h) (aa). As to conditions: read-out: % Inhibition of Control Specific Binding @ 10 μM. As for the experimental part: as §1, §2

Test [9] concerns the target T9, Corticotropin Releasing Factor CRF1 (h) (Homo sapiens, UniProt P34998).
T9 construct: expressed in transfected cells; host or cells: CHO cells
T9 sequence (P34998 24-415): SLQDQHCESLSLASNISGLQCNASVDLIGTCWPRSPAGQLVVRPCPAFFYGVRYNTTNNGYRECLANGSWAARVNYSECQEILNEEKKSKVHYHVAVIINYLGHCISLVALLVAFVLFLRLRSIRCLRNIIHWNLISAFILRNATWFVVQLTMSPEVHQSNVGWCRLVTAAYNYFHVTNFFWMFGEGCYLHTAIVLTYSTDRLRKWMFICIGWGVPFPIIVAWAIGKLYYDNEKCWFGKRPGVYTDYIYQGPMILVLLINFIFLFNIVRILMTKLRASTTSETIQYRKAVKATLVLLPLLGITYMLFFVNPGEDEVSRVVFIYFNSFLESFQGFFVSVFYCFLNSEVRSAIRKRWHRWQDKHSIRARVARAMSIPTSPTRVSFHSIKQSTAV
Briefly: Binding CRF1 (h) (ag). As to conditions: read-out: % Inhibition of Control Specific Binding @ 10 μM. The protocol: as §1, §2

Test [10] concerns the target T10, Histamine H2 (h) (Homo sapiens, UniProt P25021).
T10 construct: expressed in transfected cells; host or cells: CHO cells
Put plainly: Binding H2 (h) (aa). As to conditions: read-out: % Inhibition of Control Specific Binding @ 10 μM. The protocol:
as §1, §2

T10 sequence (P25021 whole entry): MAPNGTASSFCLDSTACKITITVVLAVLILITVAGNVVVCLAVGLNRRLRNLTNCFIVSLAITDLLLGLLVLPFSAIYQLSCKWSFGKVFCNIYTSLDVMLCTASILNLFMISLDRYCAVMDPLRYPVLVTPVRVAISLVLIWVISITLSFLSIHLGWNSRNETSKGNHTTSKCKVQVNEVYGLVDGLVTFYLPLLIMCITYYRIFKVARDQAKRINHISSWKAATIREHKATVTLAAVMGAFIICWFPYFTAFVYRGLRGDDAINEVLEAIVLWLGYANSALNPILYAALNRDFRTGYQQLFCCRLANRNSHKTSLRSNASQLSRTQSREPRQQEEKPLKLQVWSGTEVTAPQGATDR
T4 sequence (P07550 whole entry): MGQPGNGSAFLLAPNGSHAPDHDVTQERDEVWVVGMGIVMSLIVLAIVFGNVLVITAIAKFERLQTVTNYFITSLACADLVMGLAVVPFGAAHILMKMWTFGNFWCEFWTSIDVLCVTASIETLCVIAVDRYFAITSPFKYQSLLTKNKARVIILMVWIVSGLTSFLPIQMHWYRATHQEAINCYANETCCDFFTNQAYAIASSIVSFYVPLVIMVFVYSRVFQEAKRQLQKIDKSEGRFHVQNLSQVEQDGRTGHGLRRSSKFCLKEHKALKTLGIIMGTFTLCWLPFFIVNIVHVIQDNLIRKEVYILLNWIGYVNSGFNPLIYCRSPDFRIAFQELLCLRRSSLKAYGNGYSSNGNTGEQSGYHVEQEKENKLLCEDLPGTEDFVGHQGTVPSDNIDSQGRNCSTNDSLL
T5 sequence (P09483 31-630): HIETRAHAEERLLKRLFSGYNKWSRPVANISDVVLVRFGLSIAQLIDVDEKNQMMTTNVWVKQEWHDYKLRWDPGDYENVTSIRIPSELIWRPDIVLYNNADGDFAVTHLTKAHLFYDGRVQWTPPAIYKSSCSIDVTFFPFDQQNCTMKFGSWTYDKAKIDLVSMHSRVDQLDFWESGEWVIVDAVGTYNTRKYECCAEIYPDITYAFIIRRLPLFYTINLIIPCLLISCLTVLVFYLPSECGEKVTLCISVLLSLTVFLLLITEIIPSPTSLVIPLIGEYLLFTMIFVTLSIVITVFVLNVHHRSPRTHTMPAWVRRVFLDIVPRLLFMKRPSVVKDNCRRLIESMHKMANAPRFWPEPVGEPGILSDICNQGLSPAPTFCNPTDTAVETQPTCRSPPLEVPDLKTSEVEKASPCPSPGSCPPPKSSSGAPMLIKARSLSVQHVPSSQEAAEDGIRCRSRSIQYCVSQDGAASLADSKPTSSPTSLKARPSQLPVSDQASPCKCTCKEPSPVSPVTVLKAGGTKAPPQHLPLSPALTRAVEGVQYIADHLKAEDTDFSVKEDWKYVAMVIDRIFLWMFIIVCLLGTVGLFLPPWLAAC
T5 sequence (P12390 25-500): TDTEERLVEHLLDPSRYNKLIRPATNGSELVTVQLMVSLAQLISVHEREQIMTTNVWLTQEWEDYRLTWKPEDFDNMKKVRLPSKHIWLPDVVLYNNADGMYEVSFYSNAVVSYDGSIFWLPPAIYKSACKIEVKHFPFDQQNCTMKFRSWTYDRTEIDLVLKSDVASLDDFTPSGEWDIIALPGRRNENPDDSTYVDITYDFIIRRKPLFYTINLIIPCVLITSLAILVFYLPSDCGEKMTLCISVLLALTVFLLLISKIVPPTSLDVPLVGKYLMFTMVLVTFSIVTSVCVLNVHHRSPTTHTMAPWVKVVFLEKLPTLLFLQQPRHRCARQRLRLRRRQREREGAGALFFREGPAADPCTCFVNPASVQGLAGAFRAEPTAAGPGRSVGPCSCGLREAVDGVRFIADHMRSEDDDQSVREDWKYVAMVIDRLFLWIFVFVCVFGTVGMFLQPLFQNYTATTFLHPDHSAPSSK

On to `CNC(=O)c1ccc(N2C(=O)N(c3ccc(C#N)c(C(F)(F)F)c3)C(=O)C2(C)C)cc1F` [(MIV), 4-(3-(4-cyano-3-(trifluoromethyl)phenyl)-5,5-dimethyl-2,4-dioxoimidazolidin-1-yl)-2-fluoro-N-methylbenzamide], for which the inhibition at 10 µM in test [1] was 25%; in test [2] it was 3%; in [3], 1%; in test [4] it was -10%; in test [5] it was -3%; in [6], 2%. The inhibition at 10 µM in [7] was 50%; in test [8], -15%; in [9], -23%; in test [10], -20%.

As to `CC1(C)C(=O)N(c2ccc(C#N)c(C(F)(F)F)c2)C(=O)N1c1ccc(C(N)=O)c(F)c1` [(MIII), 4-(3-(4-cyano-3-(trifluoromethyl)phenyl)-5,5-dimethyl-2,4-dioxoimidazolidin-1-yl)-2-fluorobenzamide], the inhibition at 10 µM is -14% in [1]; 2% in test [2]; -2% in test [3]; -6% in test [4]; -11% in test [5]; 4% in test [6]. Moreover, the inhibition at 10 µM is 11% in test [7], 13% in [8], -9% in test [9] and -19% in test [10].

In the case of `CC1(C)C(=O)N(c2ccc(C#N)c(C(F)(F)F)c2)C(=S)N1c1ccc(C(=O)O)c(F)c1` [(MI), 4-(3-(4-cyano-3-(trifluoromethyl)phenyl)-5,5-dimethyl-4-oxo-2-thioxoimidazolidin-1-yl)-2-fluorobenzoic acid], the inhibition at 10 µM was 47% in test [1]; 10% in test [2]; -1% in test [3]; 6% in test [4]; 0% in [5]; 3% in [6]. For the same compound, the inhibition at 10 µM in test [7] is 69%; in test [8], 1%; in [9], -4%; in test [10], -41%.

For the compound `CC1(C)C(=O)N(c2ccc(C#N)c(C(F)(F)F)c2)C(=S)N1c1ccc(C(N)=O)c(F)c1` [(MII), 4-(3-(4-Cyano-3-(trifluoromethyl)phenyl)-5,5-dimethyl-4-oxo-2-thioxoimidazolidin-1-yl)-2-fluorobenzamide], the inhibition at 10 µM in test [1] is 0%; in test [2], -5%; in [3], -6%; in [4], -3%; in test [5] it was -3%; in test [6], 0%. Also, the inhibition at 10 µM was 17% in test [7], 9% in test [8], 1% in test [9] and -27% in test [10].
